Laboratory results published in patent US8273777B2, “Glucokinase activators and methods of using same” (Bristol-Meyer Squibb Company, priority 2007, dated 2012).

Target: T1, human glucokinase (GK) (Homo sapiens, UniProt P35557)
T1 construct: Full-length human hepatic GK (untagged) was expressed in BL21 STAR (DE3)pLysS cells; made in house; host or cells: E. coli BL21 STAR (DE3)pLysS (Invitrogen)
T1 sequence (P35557 1-466 isoform P35557-2): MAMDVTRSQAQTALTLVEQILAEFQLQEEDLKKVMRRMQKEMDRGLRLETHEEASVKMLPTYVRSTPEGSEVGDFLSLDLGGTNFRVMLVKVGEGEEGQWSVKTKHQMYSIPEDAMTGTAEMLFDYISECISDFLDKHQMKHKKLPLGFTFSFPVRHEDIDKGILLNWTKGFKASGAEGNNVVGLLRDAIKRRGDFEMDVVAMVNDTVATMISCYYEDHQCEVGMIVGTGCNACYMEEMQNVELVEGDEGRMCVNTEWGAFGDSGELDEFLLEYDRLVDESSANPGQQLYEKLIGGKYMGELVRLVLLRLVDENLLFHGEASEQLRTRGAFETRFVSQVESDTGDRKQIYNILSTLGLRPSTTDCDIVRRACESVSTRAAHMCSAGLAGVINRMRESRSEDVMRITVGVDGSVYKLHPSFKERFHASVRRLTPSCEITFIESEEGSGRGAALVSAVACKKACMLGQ
Assay: Glucokinase tandem enzymatic assay
Assay type: biochemical
Conditions: 12 mM glucose; EC50 = concentration to achieve 50% of full activation
Protocol: Glucokinase Tandem Enzymatic Assay
Enzymatic activity of human glucokinase (GK) was measured by incubating GK, ATP, and glucose for discrete time periods followed by quenching with EDTA (ethylenediamine tetra-acetic acid). Relative amounts of product glucose-6-phosphate (G6P) were measured by then running a detection assay using G6P dehydrogenase and measuring the conversion of ThioNAD (thio-nicotinamide adenine dinucleotide) to ThioNADH (thio-dihydronicotinamide adenine dinucleotide) at a wavelength of 405 nm. This ‘uncoupled’ enzymatic reaction is denoted as the GK ‘tandem’ assay. Activation of GK by compounds can be assessed using this assay. The GK tandem assay protocol described below was followed using a range of activator compound concentrations from 0 to 100 μM at 5 and 12 mM of glucose. Human full-length glucokinase (GK, 15 nM) was incubated with 5 or 12 mM glucose in a 384 well black microtiter plate with a clear bottom. To initiate the GK reaction, magnesium-ATP (3 mM final concentration) was added to GK in buffer (final buffer conditions of 25 mM HEPES buffer, pH 7.1, containing 1 mM dithiothreitol and 5% DMSO). The total reaction volume was 20 μL The reaction was allowed to proceed for ten minutes and was then quenched with 5 μL EDTA; 45 mM final). The components of the detection reaction, ThioNAD and G6PDH (glucose-6-phosphate dehydrogenase) (final concentrations of 650 μM and 3.33 Units, respectively), were then added together in a volume of 25 μL (to give a total volume of 50 μL). Absorbance measurements were made at 405 nm on a Spectramax Plus 384 absorbance plate reader (Molecular Devices). Absorbance was read, background glucose-6-phosphate levels were subtracted, after which activation was calculated as a percentage of control activity. Control activity was determined using GK in the presence of vehicle (DMSO), with background glucose-6-phosphate subtracted. Background glucose-6-phosphate was determined by pre-quenching GK with EDTA prior to reaction initiation with ATP.
Expression and Purification of Human GK
Full-length human hepatic GK (untagged) was expressed in BL21 STAR (DE3)pLysS cells (Invitrogen) at 25° C. as described by Mookhtiar et al. (1). The protein was purified essentially as described by Lange (2) with a slight modification. Briefly, cell pellets were lysed via three rounds of freezing and thawing, centrifuged at 15000 g for clarification, and precipitated with 40-65% (NH4)2SO4. The resulting pellet was resuspended in buffer, dialyzed, and applied directly to a Q-Sepharose (Sigma) column followed by elution with a linear 100-600 mM KCl gradient. GK containing fractions were pooled, dialyzed overnight vs. 25 mM Hepes pH 7.2/1 mM MgCl2/1 mM EDTA/0.1 M KCl/1 mM DTT, then dialyzed again with same buffer with 10% glycerol added.

Q: Which EC50 does the source give for COC[C@H](C)Oc1cc(NC(=O)c2nc3ccccc3s2)cc(Oc2ccc(S(C)(=O)=O)cc2)c1 [Example 5] here?
A: 165 nM

Q: With COC[C@H](C)Oc1cc(NC(=O)c2c[nH]cn2)cc(Oc2ccc(S(C)(=O)=O)cc2)c1 [Example 6] as the compound, how does the EC50 read?
A: 191 nM

Q: With COC[C@H](C)Oc1cc(NC(=O)c2cc[nH]n2)cc(Oc2ccc(S(C)(=O)=O)cc2)c1 [Example 8] as the compound, how does the EC50 read?
A: 513 nM

Q: How did the EC50 turn out when COC[C@H](C)Oc1cc(NC(=O)c2ncc(C)s2)cc(Oc2ccc(S(C)(=O)=O)cc2)c1 [Example 18] was run?
A: 67 nM

Q: For Cc1cnc(C(=O)Nc2cc(Oc3ccc(S(C)(=O)=O)cc3)cc(O[C@@H](C)CO)c2)s1 [Example 22], which EC50 is on record?
A: 77 nM

Q: CS(=O)(=O)c1ccc(Oc2cc(NC(=O)c3c[nH]cn3)cc(Oc3ccc(S(C)(=O)=O)cc3)c2)cc1 [Example 31] was tested. Which EC50 did it give?
A: 575 nM

Same assay, conditions: 12 mM glucose; expressed as % of basal activation; EC50 could not be calculated; read-out: Maximal activation (%) Human Glucokinase @ 12 mM Glucose

Q: For COC[C@H](C)Oc1cc(NC(=O)c2ncn[nH]2)cc(Oc2ccc(S(C)(=O)=O)cc2)c1 [Example 7], which Emax is on record?
A: 131%

Q: With CS(=O)(=O)c1ccc(Oc2cc(NC(=O)c3nccs3)cc(C(F)(F)F)c2)cc1 [Example 37] as the compound, how does the Emax read?
A: 163%

Test system: male DIO (diet-induced obese) C57BL/6J mice
Assay: Oral glucose tolerance test (OGTT) in DIO mice
Assay type: in vivo
Conditions: 30 mg/kg dose, given orally 60 min before glucose 2 g/kg, ΔAUC 0-120 min
Protocol: In Vivo Studies: Oral Glucose Tolerance Test (OGTT)
Oral glucose tolerance tests were carried out on male DIO (diet-induced obese) C57BL/6J mice fed a high fat diet (60% kcal from fat) for 26 weeks prior to experimentation. Mice were fasted overnight before use for experiments. A test compound or vehicle (10% dimethyl acetamide +10% ethanol +10% Cremophore +70% water) was given orally 60 min before oral administration of a glucose solution at a dose of 2 g/kg body weight (oral glucose tolerance test; OGTT). Blood glucose levels were measured from tail-bled samples taken at different time points before and after administration of glucose (time course of 2 hours). A time curve of the blood glucose was generated and the change from baseline area-under-the curve (ΔAUC) from 0-120 min was calculated (the time glucose administration being time zero).

Q: With COC[C@H](C)Oc1cc(NC(=O)c2c[nH]cn2)cc(Oc2ccc(S(C)(=O)=O)cc2)c1 [Example 6] as the compound, how does the “reduction of glucose AUC levels in OGTT” value read?
A: 66%
